Values after ≈ are worked out from the molar mass of the structure shown. Active and inactive are the calls of the source. The rule behind the calls is not given here.
How the values were obtained:
[1] = test system: Staphylococcus epidermidis; test: Growth inhibition of Staphylococcus epidermidis ATCC 12228 at 300 ug/mL; format: functional, organism-based
Escherichia coli [2] = test: Antimicrobial activity against Escherichia coli NCTC 8196; format: functional
Enterococcus faecalis = test: Antimicrobial activity against Enterococcus faecalis ATCC 29212; format: functional
[3] = Cytotoxicity against adriamycin-resistant HL60/ADR cells expressing MRP1 after 72 hrs by dye exclusion assay; format: functional, cell-based; conditions: Homo sapiens
HL-60 = test: Cytotoxicity against HL60 cells after 72 hrs by dye exclusion assay; format: functional, cell-based; conditions: Homo sapiens, HL-60, 72 h
Pseudomonas aeruginosa = test: Antimicrobial activity against Pseudomonas aeruginosa NCTC 6749; format: functional
[4] = test system: Staphylococcus epidermidis; test: Growth inhibition of Staphylococcus epidermidis ATCC 12228 at 150 ug/mL; format: functional, organism-based
Candida albicans = test: Antimicrobial activity against Candida albicans ATCC 10231 at 37.5 ug/mL by MTT reduction assay; format: functional, organism-based
Staphylococcus aureus [5] = test: Growth inhibition of Staphylococcus aureus ATCC 29213 at 150 ug/mL; format: functional, organism-based
Staphylococcus aureus [6] = test: Growth inhibition of Staphylococcus aureus ATCC 29213 at 300 ug/mL; format: functional, organism-based
Escherichia coli [7] = test: Antimicrobial activity against Escherichia coli NCTC 8196 at 300 ug/mL; format: functional, organism-based

| Compound | Activity [1] | MIC (Escherichia coli [2]) | MIC (Enterococcus faecalis) | IC50 [3] | IC50 (HL-60) | MIC (Pseudomonas aeruginosa) | Activity [4] | Activity (Candida albicans) | Activity (Staphylococcus aureus [5]) | Activity (Staphylococcus aureus [6]) | Activity (Escherichia coli [7]) |
| --- | --- | --- | --- | --- | --- | --- | --- | --- | --- | --- | --- |
| C=C1C(=O)ON(C)C1C(C)CCC (stereo not given) | Active | 75 µg/mL (≈ 409 µM) | ≥ 300 µg/mL | 2.5 µM | 4.1 µM | 300 µg/mL (≈ 1640 µM) | Active | Active | Active | Active |  |
| COc1cccc2c1C(=O)c1c(O)c3c(c(O)c1C2=O)C[C@@](O)(C(=O)CO)C[C@@H]3O[C@H]1C[C@H](N)[C@H](O)[C@H](C)O1 [DOXORUBICIN] |  |  |  |  | 0.013 µM |  |  |  |  |  |  |
| C=C1C(=O)ON(C)C1c1ccc(C)cc1 (stereo not given) | Active |  | ≥ 300 µg/mL | 6 µM |  | 300 µg/mL (≈ 1480 µM) | Active | Active | Active | Active | inactive |
